Test results published in patent publication US5424073A (Georgetown University, priority 1993, dated 1995).
≈ marks a conversion by molar mass, not a printed value.

Legend:
advanced ovarian tumors = settings: women with advanced ovarian tumors; cited from earlier work
P388 leukemia = settings: in vivo; cited from earlier work
tubulin = settings: cited from earlier work
cell replication = settings: in vitro; cited from earlier work
B16 melanoma = settings: i.p. implanted; cited from earlier work
[1] = cited from earlier work
[2] = cited from earlier work; remark: listed apart in the source
HL-60 cells = format: cell-based, human; settings: 10 μg/ml, FIG. 4
Experimental: Briefly, exponentially growing cells were incubated in 100 mm petri dishes with drug containing medium at 37° C. […] The cell pellets were suspended in 0.5 ml of 2% SDS solution and then sonicated for 5 minutes in a cup-horn sonicator. The cell homogenate was extracted with 2 ml of methanol.

HL-60/VCR cells [3] = experiment: Intracellular taxol accumulation in HL-60/VCR cells; format: cell-based, human; settings: 4 hours
Experimental: The cells were suspended in cold PBS and counted, and centrifuged again. The cell pellets were suspended in 0.5 ml of 2% SDS solution and then sonicated for 5 minutes in a cup-horn sonicator (Heat Systems, Farmingdate, N.Y.). Resulting cell homogenate was extracted with 4 ml of methanol, vortexed for 1 minute and centrifuged for 20 minutes at 3000 rpm. The samples were read by using HPLC. The concentration of drug in […] was calculated using a standard calibration curve for drug spiked cells and were then treated similarly.

Male CD2 F1 mice = experiment: Toxicity evaluation of free and liposomal taxol in normal mice; format: in vivo, mouse; settings: 25 mg/kg i.v., repeated day 5 and 9
Experimental: Male CD2 F1 mice weighing 22-25 gm were used in this study. […] Taxol liposomes were prepared using cardiolipin, phosphatidyl choline, and cholesterol. […] The same doses were repeated on mice at day 5 and 9.

HL-60/VCR cells [4] = experiment: Cytotoxicity in multidrug resistant HL-60/VCR cells; format: cell-based; settings: Homo sapiens, HL60/VCR, 72 hours, FIG. 5
Experimental: The HL-60 VCR cells were grown in media at 37° C. with 5% CO2.
After 72 hours of incubation, cells in each flask were counted by hemocytometer and viability was determined by trypan blue exclusion. Percent survival of treated cells was determined relative to untreated control. Cytotoxic activity was expressed as IC50 which was defined as the concentration of drug resulting 50% survival of the cells compared to control.

[5] = tested on: human MX-1 mammary tumor xenograft; settings: in vivo; cited from earlier work
L1210 leukemia = settings: in vivo; cited from earlier work
[6] = tested on: lymphoma, ovarian and breast cancers; settings: cited from earlier work
[7] = Stability studies of liposomal and free taxol; format: physicochemical; settings: free taxol 0.6 mg/ml in saline
[8] = tested on: HL-60 promyelocytic leukemia cells; experiment: Growth inhibition (cytotoxicity) in HL-60 leukemia cells; format: cell-based; settings: Homo sapiens; HL-60, 72 hours, 37° C., trypan blue; FIG. 3
Experimental: HL-60 promyelocytic leukemia cells were grown in tissue culture in RPM1-1640 medium supplemented with 10% fetal bovine serum. All cultures were maintained in plastic tissue culture flasks and kept in an incubator at 37° C. in humidified air containing 5% CO2.
For these experiments, 1×10^5 cells in exponential growth phase were plated into 25 cm^2 flasks. […] Cells were counted in a hemocytometer and viability was determined by trypan blue exclusion. The cell survival was compared to the control cells and IC50 (inhibitory concentration for 50% of the cells) values for each drug was determined.

metastatic breast cancer = settings: in vivo; cited from earlier work

## CC(=O)O[C@H]1C(=O)[C@@]2(C)[C@H]([C@H](OC(=O)c3ccccc3)[C@]3(O)C[C@H](OC(=O)[C@H](O)[C@@H](NC(=O)c4ccccc4)c4ccccc4)C(C)=C1C3(C)C)[C@]1(OC(C)=O)CO[C@@H]1C[C@@H]2O (relative stereo) [Taxol, (2aR(2aα,4β,4aβ,6β,9α(αR*,βS*) ,11α, 12α,12aα,12bα))-β-(β-(benzoylamino)-α-hydroxybenzenepropanoic acid 6,12b-bis(acetyloxy)-12-(benzoyloxy)-2a,3,4,4a,5,6,9,10,11,12,12a,12b-dodecahydro-4,11-dihydroxy-4a, 8,13,13-tetramethyl-5-oxo-7,11-methano-14-cyclodeca(3,4)benz(1,2-6)oxet-9-yl ester]
Advanced ovarian tumors
  tumor shrinkage, share of women: 30 to 40%
P388 leukemia
  antineoplastic activity against P388 leukemia: significant antineoplastic activity
tubulin
  effect on tubulin polymerization: markedly enhances all aspects of tubulin polymerization
Cell replication
  inhibition of cell replication: potent inhibitor of cell replication in vitro
B16 melanoma
  antineoplastic activity against B16 melanoma: significant antineoplastic activity
[1]; antihistamine and corticosteroids, infusion six to twenty four hours
  toxicities despite pretreatment and prolonged infusion: serious toxicities which are often fatal
[1]; human, in vivo
  cardiac toxicity: treatment limiting
[2]; diluted in saline solution
  degradation time once diluted in saline: ≤ 24 h
  precipitation from dilution: the drug precipitates from dilution
[2]; water
  solubility in water: limited solubility in water
HL-60 cells; 2 and 4 hours, HL-60, relative to 1 hour
  cellular concentration of taxol at 2 and 4 hours: same taxol concentration
HL-60 cells; 1 hour, HL-60
  cellular concentration of taxol at 1 hour: 5.18 μg/10^7 cells
HL-60/VCR cells [3]
  decrease in cellular uptake versus liposomal taxol: threefold decrease in cellular uptake
Male CD2 F1 mice
  sclerosis of the vein: sclerosis of the vein
Male CD2 F1 mice; ten mice per group, FIG. 2
  mortality / toxicity by day 12: three mice in the free taxol group died because of toxicity
HL-60/VCR cells [4]
  IC50: 2.43 µg/mL (≈ 2.85 µM)
[5]
  antineoplastic activity against MX-1 xenograft: significant antineoplastic activity
L1210 leukemia
  antineoplastic activity against L1210 leukemia: significant antineoplastic activity
[6]
  activity in clinical trials: sufficient activity
[7]
  degradation time in saline: ≤ 3 h
[8]
  IC50: 0.0025 µg/mL (≈ 0.00293 µM)
Metastatic breast cancer
  treatment of metastatic breast cancer: considerable promise
